According to article PMC7578299, “The antiviral effects of baloxavir marboxil against influenza A virus infection in ferrets” (Influenza and Other Respiratory Viruses, 2020):
Where “and” joins values, the source holds several entries; their conditions need not be identical. Identical values can stand only once. Like-named read-outs stand apart in the source and are kept apart here.

Key:
[1] = Pharmacokinetic analysis in ferrets after a single oral administration of BXM; type: in vivo, ferret; conditions: for concentration at 24 h: ferret, oral, read-out: C 24 h; for concentration at 24 h / AUC(0-t) / Cmax / Tmax: plasma; for AUC(0-t) / Cmax / Tmax: po
Procedure: One day prior to administration, group assignment was carried out taking body weight into account. Under isoflurane anesthesia, fasted ferrets (four per group) received BXM (10 or 30 mg/5 mL/kg) suspension orally using an intragastric tube. Blood samples were collected at 0.5, 1, 2, 4, 6, 8, and 24 hours after single oral administration of BXM and centrifuged to obtain plasma. The concentrations of BXA and BXM in plasma were determined by liquid chromatography‐tandem mass spectrometry (LC‐MS/MS). The lower limit of quantification of BXA and BXM in ferret plasma was 0.5 ng/mL. The pharmacokinetic parameters of BXA and BXM were calculated using non‐compartmental analysis module in Phoenix WinNonlin software (version 8.0; Certara LP) (https://onlinehelp.certara.com/phoenix/8.2/topics/nca.htm) based on a non‐compartment model analysis with uniform weighting.

[2] = Stability in plasma, human; type: in vitro ADME; conditions: for % Residual in plasma: BXM 200 ng/mL, 37°C, mean of duplicate; for % Residual in plasma Individual value: BXM, duplicates
Procedure: (§1) Approximately 30 mL of blood from Japanese male healthy volunteers was collected and centrifuged to obtain plasma. Blood samples from ferrets, rats, dogs, and monkeys were collected under anesthesia and centrifuged to obtain plasma. BXM was added to reach a final concentration of 200 ng/mL to all pooled plasma samples per species. After incubation for 5, 15, and 30 minutes at 37°C, twofold volume of ice‐cold acetonitrile/methanol (1:1, v/v) was added to the plasma samples to stop further reactions, which were then centrifuged at 1800 g for 10 minutes prior to LC‐MS/MS analysis of BXM in the supernatants.

[3] = Stability in plasma, ferret; type: in vitro ADME; conditions: for % Residual in plasma: BXM 200 ng/mL, 37°C, mean of duplicate; for % Residual in plasma Individual value: BXM, duplicates
Procedure: as §1

[4] = Stability in plasma, rat; type: in vitro ADME; conditions: for % Residual in plasma: BXM 200 ng/mL, 37°C, mean of duplicate; for % Residual in plasma Individual value: BXM, duplicates
Procedure: as §1

[5] = Stability in plasma, dog; type: in vitro ADME; conditions: for % Residual in plasma: BXM 200 ng/mL, 37°C, mean of duplicate; for % Residual in plasma Individual value: BXM, duplicates
Procedure: as §1

[6] = Stability in plasma, monkey; type: in vitro ADME; conditions: for % Residual in plasma: BXM 200 ng/mL, 37°C, mean of duplicate; for % Residual in plasma Individual value: BXM, duplicates
Procedure: as §1

[7] = Metabolic stability in liver microsomes, human; type: in vitro ADME; conditions: for % Residual in liver microsome: 0.5 mg/mL, 2 μmol/L, 37°C, mean of duplicates; for % Residual in liver microsome Individual value: duplicates
Procedure: (§2) Liver microsomes were prepared from ferrets, rats, dogs, and monkeys, as previously described. ^28 Human liver microsomes were obtained from Sekisui‐XenoTech, LLC and pooled (n = 15). Metabolic stability of the compounds in liver microsomes was tested in duplicate. Oseltamivir and cefcapene pivoxil were used as reference compounds. Liver microsomes at 0.5 mg/mL concentration (final volume of 0.2 mL) were incubated in Tris‐HCl buffer (pH 7.4), containing 50 mmol/L Tris‐HCl, 150 mmol/L KCl, 10 mmol/L MgCl2. The hydrolysis reaction was initiated by applying the test compound solution (final concentration 2 μmol/L). After incubation for 10, 20, and 30 minutes at 37°C, the hydrolysis was terminated by the addition of twofold volume of ice‐cold acetonitrile/methanol (1:1, v/v). Samples were centrifuged at 3000 rpm for 10 minutes prior to LC‐MS/MS analysis of compounds in the supernatants.

[8] = Metabolic stability in liver microsomes, ferret; type: in vitro ADME; conditions: for % Residual in liver microsome / % Residual in liver microsome Individual value: ferret; for % Residual in liver microsome: 0.5 mg/mL, 2 μmol/L, 37°C, mean of duplicates; for % Residual in liver microsome Individual value: duplicates
Procedure: as §2

[9] = Metabolic stability in liver microsomes, dog; type: in vitro ADME; conditions: for % Residual in liver microsome: 0.5 mg/mL, 2 μmol/L, 37°C, mean of duplicates; for % Residual in liver microsome Individual value: duplicates
Procedure: as §2

[10] = Metabolic stability test, control (microsome free); type: in vitro ADME; conditions: microsome free; for % Residual, Control (Microsome free): 2 μmol/L, 37°C, mean of duplicates; for % Residual Individual value, Control (Microsome free): duplicates
Procedure: as §2

[11] = tested on: influenza virus; set-up: method as in PMID 30288682; conditions: patients, cited from earlier work
[12] = single oral BXM 10 mg/kg, individual ferrets (Ferret-01 to Ferret-04)
[13] = single oral BXM 30 mg/kg, individual ferrets (Ferret-05 to Ferret-08)

## COC(=O)OCOc1c2n(ccc1=O)N([C@@H]1c3ccccc3SCc3c1ccc(F)c3F)[C@@H]1COCCN1C2=O [BXM, Baloxavir marboxil]
[1]; 10 mg/kg, single oral BXM 10 mg/kg, 5% SDS water vehicle, mean of four ferrets
  concentration at 24 h: 28.6 ± 30.4 ng/mL
[1]; 10 mg/kg, single oral BXM 10 mg/kg, mean of four ferrets
  concentration at 24 h: 50.1 ± 53.3 nM
[1]; 30 mg/kg, single oral BXM 30 mg/kg, 5% SDS water vehicle, mean of four ferrets
  concentration at 24 h: 36.1 ± 12.3 ng/mL
[1]; 30 mg/kg, single oral BXM 30 mg/kg, mean of four ferrets
  concentration at 24 h: 63.1 ± 21.5 nM
[1]; 10 mg/kg, single oral BXM 10 mg/kg, 5% SDS water vehicle, mean of four ferrets, read-out: AUC0-24 h
  AUC(0-t): 715 ± 758 ng·h/mL
[1]; 10 mg/kg, single oral BXM 10 mg/kg, 5% SDS water vehicle, mean of four ferrets, read-out: C max
  Cmax: 165 ± 179 ng/mL
[1]; 10 mg/kg, single oral BXM 10 mg/kg, 5% SDS water vehicle, mean of four ferrets, read-out: T max
  Tmax: 1.13 ± 0.63 h
[1]; 10 mg/kg, single oral BXM 10 mg/kg, mean of four ferrets, read-out: AUC0-24 h
  AUC(0-t): 1.25 ± 1.33 µM·h
[1]; 10 mg/kg, single oral BXM 10 mg/kg, mean of four ferrets, read-out: C max
  Cmax: 289 ± 312 nM
[1]; 30 mg/kg, single oral BXM 30 mg/kg, 5% SDS water vehicle, mean of four ferrets, read-out: AUC0-24 h
  AUC(0-t): 1260 ± 150 ng·h/mL
[1]; 30 mg/kg, single oral BXM 30 mg/kg, 5% SDS water vehicle, mean of four ferrets, read-out: C max
  Cmax: 298 ± 88 ng/mL
[1]; 30 mg/kg, single oral BXM 30 mg/kg, 5% SDS water vehicle, mean of four ferrets, read-out: T max
  Tmax: 0.875 ± 0.25 h
[1]; 30 mg/kg, single oral BXM 30 mg/kg, individual ferrets (Ferret-05 to Ferret-08), read-out: AUC0-24hr, individual data
  AUC(0-t): 1450 ng·h/mL
[1]; 30 mg/kg, single oral BXM 30 mg/kg, individual ferrets (Ferret-05 to Ferret-08), read-out: Cmax, individual data
  Cmax: 392 ng/mL
[1]; 30 mg/kg, single oral BXM 30 mg/kg, individual ferrets (Ferret-05 to Ferret-08), read-out: Tmax, individual data
  Tmax: 1 h
[1]; 30 mg/kg, single oral BXM 30 mg/kg, mean of four ferrets, read-out: AUC0-24 h
  AUC(0-t): 2.21 ± 0.25 µM·h
[1]; 30 mg/kg, single oral BXM 30 mg/kg, mean of four ferrets, read-out: C max
  Cmax: 522 ± 154 nM
[1]; single oral BXM 10 mg/kg, 5% SDS water vehicle, mean of four ferrets
  C 24 h: 28.6 ng/mL
[1]; [12]
  AUC0-24hr, individual data: 174 ng·h/mL and 539 ng·h/mL and 318 ng·h/mL and 1830 ng·h/mL
  C24hr, individual data: 3.59 ng/mL and 35.0 ng/mL and 6.75 ng/mL and 69.0 ng/mL
  Cmax, individual data: 101 ng/mL and 79.2 ng/mL and 48.6 ng/mL and 431 ng/mL
  Tmax, individual data: 0.500 h and 2.00 h
[1]; single oral BXM 30 mg/kg, 5% SDS water vehicle, mean of four ferrets
  C 24 h: 36.1 ng/mL
[1]; [13]
  AUC0-24hr, individual data: 1200 ng·h/mL and 1110 ng·h/mL and 1290 ng·h/mL
  C24hr, individual data: 22.7 ng/mL and 48.5 ng/mL and 28.7 ng/mL and 44.3 ng/mL
  Cmax, individual data: 353 ng/mL and 214 ng/mL and 233 ng/mL
  Tmax, individual data: 0.500 h
[2]; 10 min
  % Residual in plasma: 92.3%
[2]; 20 min
  % Residual in plasma: 78.6%
[2]; 30 min
  % Residual in plasma: 63.9%
[2]; 10 minutes
  % Residual in plasma Individual value: 92.7% and 91.8%
[2]; 20 minutes
  % Residual in plasma Individual value: 80.0% and 77.1%
[2]; 30 minutes
  % Residual in plasma Individual value: 65.3% and 62.6%
[3]; 10 min
  % Residual in plasma: 94.7%
[3]; 20 min
  % Residual in plasma: 90.4%
[3]; 30 min
  % Residual in plasma: 77.4%
[3]; 10 minutes
  % Residual in plasma Individual value: 94.0% and 95.4%
[3]; 20 minutes
  % Residual in plasma Individual value: 90.0% and 90.9%
[3]; 30 minutes
  % Residual in plasma Individual value: 77.3% and 77.5%
[4]; 10 min
  % Residual in plasma: 0.0%
[4]; 20 min
  % Residual in plasma: 0.0%
[4]; 30 min
  % Residual in plasma: 0.0%
[4]; 10 minutes
  % Residual in plasma Individual value: 0.0%
[4]; 20 minutes
  % Residual in plasma Individual value: 0.0%
[4]; 30 minutes
  % Residual in plasma Individual value: 0.0%
[5]; 10 min
  % Residual in plasma: 91.6%
[5]; 20 min
  % Residual in plasma: 79.7%
[5]; 30 min
  % Residual in plasma: 75.6%
[5]; 10 minutes
  % Residual in plasma Individual value: 97.0% and 86.3%
[5]; 20 minutes
  % Residual in plasma Individual value: 79.0% and 80.5%
[5]; 30 minutes
  % Residual in plasma Individual value: 74.9% and 76.3%
[6]; 10 min
  % Residual in plasma: 82.9%
[6]; 20 min
  % Residual in plasma: 71.8%
[6]; 30 min
  % Residual in plasma: 55.5%
[6]; 10 minutes
  % Residual in plasma Individual value: 81.5% and 84.4%
[6]; 20 minutes
  % Residual in plasma Individual value: 71.3% and 72.3%
[6]; 30 minutes
  % Residual in plasma Individual value: 56.3% and 54.7%
[7]; 10 min
  % Residual in liver microsome: 8.2%
[7]; 20 min
  % Residual in liver microsome: 0.3%
[7]; 30 min
  % Residual in liver microsome: 0.0%
[7]; 10 minutes
  % Residual in liver microsome Individual value: 8.4% and 8.0%
[7]; 20 minutes
  % Residual in liver microsome Individual value: 0.3% and 0.2%
[7]; 30 minutes
  % Residual in liver microsome Individual value: 0.0%
[8]; ferret liver microsomes
  stability in liver microsomes (in words): stable
[8]; 10 min
  % Residual in liver microsome: 98.5%
[8]; 20 min
  % Residual in liver microsome: 98.1%
[8]; 30 min
  % Residual in liver microsome: 90.8%
[8]; 10 minutes
  % Residual in liver microsome Individual value: 97.0% and 99.9%
[8]; 20 minutes
  % Residual in liver microsome Individual value: 98.3% and 97.9%
[8]; 30 minutes
  % Residual in liver microsome Individual value: 87.4% and 94.2%
[9]; 10 min
  % Residual in liver microsome: 0.1%
[9]; 20 min
  % Residual in liver microsome: 0.1%
[9]; 30 min
  % Residual in liver microsome: 0.0%
[9]; 10 minutes
  % Residual in liver microsome Individual value: 0.1%
[9]; 20 minutes
  % Residual in liver microsome Individual value: 0.1%
[9]; 30 minutes
  % Residual in liver microsome Individual value: 0.0% and 0.1%
[10]; 10 min
  % Residual, Control (Microsome free): 81.3%
[10]; 20 min
  % Residual, Control (Microsome free): 81.7%
[10]; 30 min
  % Residual, Control (Microsome free): 92.1%
[10]; 10 minutes
  % Residual Individual value, Control (Microsome free): 72.2% and 90.3%
[10]; 20 minutes
  % Residual Individual value, Control (Microsome free): 81.2% and 82.1%
[10]; 30 minutes
  % Residual Individual value, Control (Microsome free): 86.1% and 98.1%
[11]; single weight-based oral dose 40 or 80 mg
  time within which infectious virus titers declined: ≤ 1 days
[11]; vs placebo and OSP
  time to alleviation of symptoms (in words): superior compared with placebo but not significantly different from the effect of OSP treatment
